Calls of active or inactive are those of the source.
Tests used:
Format in all cases: functional, organism-based
Bacillus subtilis = experiment: Antibacterial activity against Bacillus subtilis ATCC 6051 at 100 ug/disk
Candida albicans = experiment: Antifungal activity against Candida albicans ATCC 14053 at 100 ug/disk
Aspergillus flavus = experiment: Antifungal activity against Aspergillus flavus NRRL 6541 at 100 ug/disk
Fusarium verticillioides = experiment: Antifungal activity against Fusarium verticillioides NRRL 25457 at 100 ug/disk
Staphylococcus aureus = experiment: Antibacterial activity against Staphylococcus aureus ATCC 25923 at 100 ug/disk

Measured: Activity

C[C@@H]1C[C@@H]2O[C@@H]2[C@H]2O[C@@H]2[C@@H](O)CC(=O)O1
inactive: all assays above

C[C@@H]1C[C@@H]2O[C@@H]2/C=C/[C@H](O)CC(=O)O1
inactive: all assays above

C[C@@H]1C[C@H](O)C(=O)CCC(O)CC(=O)O1 (stereo partly drawn)
inactive: all assays above

C[C@@H]1C[C@@H]2O[C@@H]2/C=C/[C@]2(CC(=O)O1)C[C@@H](O)C(=O)O2
inactive: Bacillus subtilis | Candida albicans | Staphylococcus aureus

From ChEMBL document CHEMBL1144693, “Botryolides A-E, decarestrictine analogues from a fungicolous Botryotrichum sp. (NRRL 38180)” (J Nat Prod, 2008)
